Key:
Type in all cases: functional, cell-based
MCF7 = test: Cytotoxicity against human MCF7 cells after 24 hrs by MTT assay; conditions: MCF7, 24 h
HT-29 = test: Cytotoxicity against human HT-29 cells after 24 hrs by MTT assay; conditions: HT-29, 24 h
A549 = test: Cytotoxicity against human A549 cells after 24 hrs by MTT assay; conditions: A549, 24 h
PA-1 = test: Cytotoxicity against human PA1 cells after 24 hrs by MTT assay; conditions: PA-1, 24 h

Structure (SMILES) | IC50 (MCF7) | IC50 (HT-29) | IC50 (A549) | IC50 (PA-1)
Fc1ccc(Nc2nc(Nc3ccc(-c4nc5ccccc5o4)cc3)nc(N3CCOCC3)n2)cc1 | 12.3 µM | 0.31 µM | 26.7 µM | 0.45 µM
c1ccc(CNc2nc(Nc3ccc(-c4nc5ccccc5o4)cc3)nc(N3CCOCC3)n2)cc1 | 2.46 µM | 0.92 µM | 23.4 µM | 10.5 µM
COc1ccc(Nc2nc(Cl)nc(Nc3ccc(-c4nc5ccccc5o4)cc3)n2)cc1 | 270 µM | 139 µM | 278 µM | 172 µM
c1ccc(Nc2nc(Nc3ccc(-c4nc5ccccc5o4)cc3)nc(N3CCOCC3)n2)cc1 | 10.6 µM | 0.27 µM | 22 µM | 0.61 µM
Clc1nc(Nc2ccccc2)nc(Nc2ccc(-c3nc4ccccc4o3)cc2)n1 | 55.2 µM | 32.6 µM | 225 µM | 169 µM
COc1ccc(Nc2nc(Nc3ccc(-c4nc5ccccc5o4)cc3)nc(N3CCOCC3)n2)cc1 | 6.48 µM | 0.14 µM | 12.9 µM | 0.25 µM
Fc1ccc(Nc2nc(Cl)nc(Nc3ccc(-c4nc5ccccc5o4)cc3)n2)cc1 | 68.4 µM | 47 µM | 254 µM | 186 µM
Clc1nc(NCc2ccccc2)nc(Nc2ccc(-c3nc4ccccc4o3)cc2)n1 | 66.1 µM | 44 µM | 296 µM | 195 µM
COc1cccc2c1C(=O)c1c(O)c3c(c(O)c1C2=O)C[C@@](O)(C(=O)CO)C[C@@H]3O[C@H]1C[C@H](N)[C@H](O)[C@H](C)O1 [DOXORUBICIN] | 10.9 µM | 1.76 µM |  | 0.64 µM

From ChEMBL document CHEMBL3044566, “Synthesis and anticancer activity of some new s-triazine derivatives” (Med Chem Res, 2013)
